Data from patent publication US20240199601A1, “QUINONE COMPOUND AND PHARMACEUTICAL USE THEREOF” (NANJING SHUPENG LIFE SCIENCE CO., LTD., priority 2021, published 2024).

Key:
[1] = test system: oxaliplatin-induced hyperalgesia; test: Oxaliplatin chemotherapy pain model; format: in vivo, C57LB6 mice; settings: 40 mg/kg by gavage, oxaliplatin 3 mg/kg i.p., mice, Von Frey
Method: A total of 30 10-week-old wild male C57LB6 mice were selected.
On DAY 0, the mice were allowed to adapt to the environment for 7 days first, basic mechanical pain thresholds were detected and were basically about 1-1.4 g, and a total of 30 mice were used in this test without abnormal mice.
On DAYS 1-5, the mice were randomly divided into 3 groups including a blank control group (n=10), a model control group (n=10) and an SP3101 group (40 mg/kg, n=10). The mice in the SP3101 group were administrated with an SP3101 aqueous solution by gavage, the mice in the model control group were administrated with double distilled water by gavage, and the mice in the model control group and the SP3101 group were administrated with oxaliplatin (3 mg/kg) by intraperitoneal injection 0.5 hour later. The same operations were continuously performed for 5 days. On DAY 5, the pain thresholds were detected by using Von Frey fibrils.
On DAYS 6-10, the mice were only administered with SP3101 and water by gavage.
On DAYS 11-15, the operations on DAYS 1-5 were repeated, and on DAY 11, the pain thresholds were detected by using Von Frey fibrils.
On DAYS 16-20, the mice were only observed, and on DAY 16 and DAY 20, the mechanical pain thresholds were detected.

AMPK = AMPK agonist test in RAW264.7 cells (protein hybridization, p-AMPK); format: cell-based; settings: 0.1 μM, 24 hours
Method: (§1) RAW264.7 cells were inoculated into two six-well plates and enabled to grow to a density of about 90%, and SP3101 and SP3102 of different concentrations were added, respectively. 24 hours later, the cells were lysed with a radio immunoprecipitation assay (RIPA) lysis buffer, and the expression of proteins was detected by protein hybridization.
(§2) Phosphorylation of serine at the 127th site of AMPK is used as an activation marker. […] It can be seen that the compounds, represented by the SP3101 and the SP3102, of the present invention are used as an AMPK agonist.

[2] = test system: autophagy related protein (LC3B); test: LC3B expression in RAW264.7 cells (protein hybridization); format: cell-based; settings: different concentrations, 24 hours
Method: as §1, §2

[3] = test system: antioxidant transcription factor (Nrf2); test: Nrf2 expression in RAW264.7 cells (protein hybridization); format: cell-based; settings: different concentrations, 24 hours
Method: as §1, §2

[4] = test system: paclitaxel-induced hyperalgesia; test: Paclitaxel chemotherapy pain model; format: in vivo, B6 mice; settings: 40 mg/kg by gavage once a day for 15 days, paclitaxel 4 mg/kg i.p. x4, mice, Von Frey 0.07 g and 0.4 g
From the text: A total of 30 8- to 10-week-old male B6 mice were selected and allowed to adapt to the environment for three days.
On DAY 0, mechanical pain thresholds were detected by using Von Frey fibrils, the mice with abnormal pain thresholds were abandoned, and the basic pain thresholds were basically about 0.6-1.0 g. According to the basic pain thresholds, a pain threshold of 0.07 g was used in this test, and a pain threshold of 0.4 g was used in subsequent detection. Behaviors such as foot lifting and foot licking were identified as positive responses. […] The mice were randomly divided into the following groups: (1) a model control group (PC, n=10), (2) an SP3101 group administered at a dose of 40 mg/kg (n=10) by gavage and (3) a blank control group (NC). The mice in the model control group were administrated with double distilled water by gavage, the mice in the model control group and the SP3101 group were administrated with paclitaxel (4 mg/kg) by intraperitoneal injection 0.5 hour later, and the mice in the blank control group were administrated with normal saline by intraperitoneal injection. […] The first modeling day was determined as DAY 0. […] On DAY 0, 3, 7, 9, 14, 18 and 21, the mechanical pain thresholds were detected.

[5] = test system: cisplatin-induced hyperalgesia; test: Cisplatin chemotherapy pain model; format: in vivo, B6 mice; settings: 40 mg/kg/day by gavage, cisplatin 2.3 mg/kg/day i.p., mice, Von Frey 0.4 g and 1.0 g
From the text: 20 12-week-old male B6 mice were selected and allowed to adapt to the environment for three days.
On DAY 1, basic mechanical pain thresholds were detected by using Von Frey fibrils, the mice with abnormal pain thresholds were abandoned (no abnormal mice were found in this batch), and the pain thresholds were basically about 1.4-2.0 g. According to the basic pain thresholds, a pain threshold of 0.4 g was used in this test, and a pain threshold of 1.0 g was used in subsequent detection Behaviors such as foot lifting and foot licking were identified as positive responses.
On DAYS 1-5, after the basic mechanical pain thresholds were detected, the mice were randomly divided into the following groups: (1) a model control group (n=10) and (2) an SP3101 group (n=10) administered by gavage at a dose of 40 mg/kg/day, where the mice in the model control group were administered with double distilled water by gavage, and the mice in the two groups were administered with cisplatin prepared with normal saline (2.3 mg/kg/day) by intraperitoneal injection 0.5 hour later.
On DAYS 6-10, the mice were only administered with SP3101 and water by gavage, and on DAY 7, the mechanical pain thresholds were detected.
On DAYS 11-15, the operations on DAYS 1-5 were repeated, and on DAY 15, the mechanical pain thresholds were detected. […]

[6] = test system: MHV-A59 virus-induced lung inflammation; test: MHV-A59 virus-induced lung inflammation of mice; format: in vivo, C57BL/B6 mice; settings: 20 mg/kg/day by gavage for 5 days
Method: As viral pneumonia of C57BL/B6 mice can be induced by nasal dropping of an MHV-A59 virus, the ability of SP3101 to inhibit virus-induced lung inflammation of mice is studied using such model.
An MHV-A59 virus strain was purchased from Suzhou Xishan Biotechnology Co., Ltd. at a PFU/ml of 1.4×10^7.
6-week-old mice were divided into 3 groups with 8 mice in each group. After anesthesia, the mice in a blank control group were administered with normal saline through the noses, and viral pneumonia models of the other two groups were constructed as follows: 10 μL of an MHV was injected into the nose of each mouse at a PFU of 1.4×10^5 with 5 μL into the left nostril and the right nostril, respectively, and about 3-6 hours later, the mice woke up. The mice in a model treatment group were administered with an SP3101 aqueous solution by gavage at a dose of 20 mg/kg body weight/day (mg/kg/day).
After continuous administration for 5 days, the mice were anesthetized and dissected 4 hours after the last administration, and the lungs were taken out, fixed with paraformaldehyde and stored for hematoxylin-eosin (HE) section staining.

Question: For O=C1C(=O)c2nc(O)cc(C(=O)O)c2-c2[nH]ccc21 [SP3101, 4,5-dioxo-4,5-dihydro-1H-pyrrolo[2,3-f]quinone-7-hydroxy-9-carboxylic acid], which “prevention of oxaliplatin-induced hyperalgesia” value [1] is on record?
Answer: obviously prevent oxaliplatin-induced hyperalgesia

Question: And the “activation of AMPK (expression of p-AMPK)” value (AMPK)?
Answer: obviously activate the AMPK

Question: And the “expression of autophagy related protein (LC3B)” value [2]?
Answer: also increased

Question: What about the “expression of antioxidant transcription factor (Nrf2)” value [3] of the same molecule?
Answer: increased in a dose-dependent manner

Question: What about the “alleviation of paclitaxel-induced hyperalgesia” value [4] of the same molecule?
Answer: obvious effect of alleviating the paclitaxel-induced hyperalgesia

Question: And the “alleviation of cisplatin-induced hyperalgesia” value [5]?
Answer: obvious effect of alleviating

Question: What about the “inhibition of virus-induced lung inflammation (HE sections)” value [6] of the same molecule?
Answer: obvious effect of inhibiting virus-induced lung inflammation
